Reference: publication PMC10995865 (Virus Research, 2024)

Legend:
[1] = target: AsfvPolX (African swine fever virus, UniProt P42494); conditions: cited from earlier work
[2] = target: AsfvPolX-DNA complex (African swine fever virus, UniProt P42494); assay: biochemical; format: binding
Sequence of AsfvPolX-DNA complex (P42494 whole entry, looked up, one chain of several): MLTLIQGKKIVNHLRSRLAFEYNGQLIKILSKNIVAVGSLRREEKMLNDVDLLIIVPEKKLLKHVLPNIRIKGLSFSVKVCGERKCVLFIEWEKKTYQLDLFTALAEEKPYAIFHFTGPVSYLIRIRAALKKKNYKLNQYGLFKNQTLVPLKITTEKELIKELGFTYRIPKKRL

Sequence of AsfvPolX (P42494 whole entry, looked up): as the sequence (P42494 whole entry, looked up, one chain of several) above

| Molecule | Effect on AsfvPolX activity [1] | inhibition at 100 µM ([2]; read-out: Inhibition of AsfvPolX-DNA complex formation) [%] | Inhibition of AsfvPolX activity ([1]; 100 µM) [%] | Inhibition of AsfvPolX-DNA complex formation ([2]; 100 µM) [%] |
| --- | --- | --- | --- | --- |
| COc1cc(Nc2ncc(F)c(Nc3ccc4c(n3)N(COP(=O)(O)O)C(=O)C(C)(C)O4)n2)cc(OC)c1OC [fostamatinib] | dose-dependent decrease | 0 |  |  |
| pentagastrin |  |  | 60 | 0 |
